Entries after “also recorded” stand apart in the source; their conditions may differ.

Assay type in all cases: in vivo, B6C3F1 mice
Data set [1] deals with liver enzymes AST and ALT, hepatocellular vacuolar degeneration, plasma lipids. The experiment in a line: Assessment of hepatic function and plasma lipids. How it is done: Assessment of Hepatic Function: Hepatocellular vacuolar degeneration and enzymatic activity of circulating aspartate aminotransferase (AST) and alanine aminotransferase (ALT) were determined by the Diagnostic Laboratory of the Arizona Health Sciences Center. Total cholesterol and triglycerides were quantified using Sigma reagents 401-25P and 344-20 respectively. HDL was measured by precipitating apoB-containing lipoproteins (Boehringer Mannheim reagent 543004) and assaying cholesterol in the supernatant fraction using the Sigma 401-25P reagent.

Another data set relates to osteocalcin. The experiment in a line: Osteocalcin immunoradiometric assay. The conditions noted are these: 160 mg/kg i.p. 15 d. How it is done:
Osteocalcin measurement: Intact serum Osteocalcin was measured using an immunoradiometric assay (IRMA, Immutopics, San Clemente, Calif.). Assay sensitivity was 0.4 ng/ml and the intra-assay coefficient of variation was 6.7%.

Another data set has as its system caspase-3. The experiment in a line: Caspase-3 protease activity in isolated small pre-antral follicles. As for the experimental part:
Follicle Isolation: Small preantral follicles (fraction 1, 25-100 μm in diameter), were prepared by gentle enzymatic dissociation of ovaries and hand sorting with micropipettes. Pools of follicles were prepared from both ovaries of six mice in each treatment (control or VCD) for each observation. Following isolation, follicles were washed twice with M199 medium and stored at −20° C.
Caspase-3 Protease Activity Measurement: The cleavage activity of caspase-3 was measured by a fluorescent activity assay. Briefly, the enzymatic reaction was carried out at 37° C. in protease assay buffer (20 mM HEPES, 100 mM NaCl, 10 mM dithiothreitol, 1 mM EDTA, 0.1% [w/v] 3-3 ([3-cholamidopropyl] dimethylammonio)-1-propanesulfanate, and 10% sucrose pH 7.2). Cellular protein (60-180 μg) was incubated with 50 μM of caspase-3 substrate, DEVD-AMC, at 37° C. for 60 minutes. Substrate cleavage was detected by measurement of the fluorescence of free 7-amino-4-methylcoumarin (AMC) with an F-2000 fluorescence spectrophotometer (Hitachi, Ltd., Tokyo, Japan) at 460 nm emission upon excitation at 380 nm.

A short description of data set [2]: Body and wet tissue weights, vaginal opening. How it is done: Treatment: Immature mice (d28) were weighed and injected i.p. with either 80 mg/kg (1, 2, or 3 times daily), 160 mg/kg (1 or 2 times daily), or 240 mg/kg (once daily) with VCD or sesame oil (vehicle control, i.p.) for 15 d resulting in a total daily exposure of 80, 160, 240, or 320 mg/kg (n=6/group). All reagents were obtained from Sigma-Aldrich (St. Louis, Mo.). Estrous cycles of each animal were monitored daily by vaginal cytology from date of vaginal opening to persistent diestrus in VCD-treated mice, and from date of vaginal opening to d120 in controls. On d8, d10, d12, d14, d15, d30, d37, d46, d57 and d120, animals were weighed, euthanized by CO2 inhalation, and the ovaries, liver and trunk blood were collected. Plasma was separated from whole blood and stored at −20° C., and liver tissues were stored at −80° C. At each time point, adrenals, kidneys, uteri, ovaries, liver, and spleen were removed, grossly examined for lesions and wet tissue weights were recorded. Additional blood samples were collected by retro-orbital puncture and plasma was collected and stored on d58, d79, d91, and d100.

As for `C1CC2OC2CC1C1CO1` (stereo not shown) [VCD, 4-vinylcyclohexene diepoxide], in data set [1] (160 mg/kg 15 d, d1-d46), the “Circulating alanine aminotransferase (ALT)” value was “not different from controls; also recorded: within the normal range”. The “Circulating aspartate aminotransferase (AST)” value in data set [1] (160 mg/kg 15 d, d1-d46) is “not different from controls; also recorded: within the normal range”. The “Total plasma cholesterol, HDL and triglycerides” value in data set [1] (d10, d15 and d37) is recorded as “within the normal range”. Also, the “Occurrence of hepatocellular vacuolar degeneration” value in data set [1] (naive, vehicle-treated control or VCD-treated mice, any time) is “no difference”. Also, the Plasma osteocalcin with osteocalcin (d46) turned out to be 131.3 ± 5.4 ng/mL; with osteocalcin (d58), 156.3 ± 6.1 ng/mL; with osteocalcin (d120 (not different from control)), 143.4 ± 7.1 ng/mL. The “Cleavage activity of caspase-3 in isolated small pre-antral follicles relative to controls” value in the data set on caspase-3 (160 mg/kg or 80 mg/kg i.p., 10 d, 4 hours after final treatment) is given as “increased”. In addition, the “Caspase-3 activity in small pre-antral (primordial and primary) follicles” value with caspase-3 (160 mg/kg/day i.p., 10 d of dosing) is on record as 14.37 flourescent units/40 μg protein. In data set [2] (160 mg/kg 15 d, any time), the “Adrenal, kidney and spleen weight” value is “not affected; also recorded: no effect”. In addition, the Whole body weights entry in data set [2] (160 mg/kg 15 d, any time-point) is “not affected”. Further, the “Increase in liver weight” value in data set [2] (160 mg/kg 15 d, d15) came to 10 % above control; in data set [2] (160 mg/kg 15 d, d37), 15 % above control. Besides, the “Uterine weight relative to age-matched vehicle controls” value in data set [2] (160 mg/kg 15 d, d15) came out at 66.04%; in data set [2] (160 mg/kg 15 d, d37) it was 71.8%; in data set [2] (160 mg/kg 15 d, d120), 47.0%. Besides, the Ovarian weight is reported as 71.2 % of control in data set [2] (160 mg/kg 15 d, d37); 61.8 % of control in data set [2] (160 mg/kg 15 d, d46); 20.7 % of control in data set [2] (160 mg/kg 15 d, d120). Further, the Liver weight entry in data set [2] (160 mg/kg 15 d, d46) is given as “returned to control levels”. For the same compound, the “Ovarian tissue weights across treatment groups” value in data set [2] (d10 or d15) is on record as “not significantly different”. Besides, the “Onset of vaginal opening” value in data set [2] (not affected by VCD treatment) came to 31 ± 0.5 days.

For the origin of these results see patent publication US7638678B2, “Animal model for perimenopause and menopause and methods of inducing ovarian failure” (The Arizona Board of Regents, priority 2002, dated 2009).
